PubChem BioAssay (NCI)
Where “and” joins values, the source holds several entries; their conditions need not be identical. Equal values may be shown once.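 Each compound was tested at five concentrations against cells in 96-well plates for 48 hours. GI50: concentration for 50% inhibition of growth. TGI: concentration producing complete growth inhibition.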

Columns and labels:
Test in all cases: NCI anticancer screen, dose series, 48 h
SK-OV-3 ovarian = tested on: SK-OV-3 ovarian
UO-31 renal = tested on: UO-31 renal
SNB-75 CNS = tested on: SNB-75 CNS
HT29 colon = tested on: HT29 colon
RPMI-8226 leukemia = tested on: RPMI-8226 leukemia
SNB-19 CNS = tested on: SNB-19 CNS
HL-60(TB) leukemia = tested on: HL-60(TB) leukemia
SK-MEL-5 melanoma = tested on: SK-MEL-5 melanoma
CAKI-1 renal = tested on: CAKI-1 renal
MALME-3M melanoma = tested on: MALME-3M melanoma

SMILES | TGI (SK-OV-3 ovarian) | TGI (UO-31 renal) | TGI (SNB-75 CNS) | TGI (HT29 colon) | TGI (RPMI-8226 leukemia) | TGI (SNB-19 CNS) | TGI (HL-60(TB) leukemia) | TGI (SK-MEL-5 melanoma) | TGI (CAKI-1 renal) | TGI (MALME-3M melanoma) | GI50 (SK-OV-3 ovarian) | GI50 (UO-31 renal) | GI50 (SNB-75 CNS) | GI50 (HT29 colon) | GI50 (RPMI-8226 leukemia) | GI50 (SNB-19 CNS) | GI50 (HL-60(TB) leukemia) | GI50 (SK-MEL-5 melanoma) | GI50 (CAKI-1 renal) | GI50 (MALME-3M melanoma)
CC(=O)Nc1ncc2c(n1)-c1ccccc1OC2 | > 100 µM | > 100 µM | > 100 µM | > 100 µM | > 100 µM | > 100 µM | > 100 µM | > 100 µM | > 100 µM |  |  |  |  |  |  |  |  |  |  | 
O=C(O)c1ccccc1-c1ccccc1C(=O)c1ccccc1 | > 100 µM | > 100 µM | > 100 µM | > 100 µM | > 100 µM | > 100 µM | > 100 µM | > 100 µM | > 100 µM | > 100 µM |  |  |  |  |  |  |  |  |  | 
COc1cccc(N2N=C3c4ccccc4-n4c(nc5ccccc54)C3C2N)c1 (stereo not drawn) |  | > 100 µM | > 100 µM | > 100 µM | > 100 µM | > 100 µM | > 100 µM | > 100 µM | > 100 µM | > 100 µM |  |  |  |  |  |  |  |  |  | 
O=C(O)CNC(=O)c1cccc2c(=O)c3ccccc3[nH]c12 | > 100 µM | > 100 µM | > 100 µM | > 100 µM | > 100 µM | > 100 µM | > 100 µM | > 100 µM | > 100 µM | > 100 µM |  |  |  |  |  |  |  |  |  | 
COc1ccc(C=O)cc1Oc1ccc(C[C@H]2c3c(cc(OC)c4c3Oc3cc5c(cc3O4)CCN(C)C5=O)CCN2C)cc1 | 17.5 µM | 14.6 µM | 14 µM | 14.4 µM | 14.3 µM | 30.2 µM | 17.5 µM | 19.4 µM | > 50 µM | 20.2 µM |  |  |  |  |  |  |  |  |  | 
COC(=O)C(Cc1ccccc1)NC(=O)CCCNC(=O)OCc1ccccc1 (stereo not drawn) | > 100 µM | > 100 µM | > 100 µM | > 100 µM | > 100 µM | > 100 µM | > 100 µM | 46.8 µM | > 100 µM | 82.7 µM |  |  |  |  |  |  |  |  |  | 
Fc1nc(F)nc(-c2c3ccccc3c3n2CCS3)n1 | > 100 µM | > 100 µM | > 100 µM | > 100 µM | > 100 µM | > 100 µM | > 100 µM | > 100 µM | > 100 µM | > 100 µM |  |  |  |  |  |  |  |  |  | 
Cc1cnc2[nH]c(-c3ccccc3)cc(=O)c2c1 | 16.4 µM | 68 µM | 82.8 µM | 0.0732 µM | > 8.62 µM | > 100 µM | 0.226 µM | 21.2 µM | > 100 µM | > 100 µM |  |  |  |  |  |  |  |  |  | 
CC(C)[Si]1(C(C)C)OCC2OC(n3cnc4c(N)ncnc43)C(N)C2O[Si](C(C)C)(C(C)C)O1 (stereo not drawn) | > 53.7 µM | 27.6 µM | 25.1 µM | 26.9 µM | 7.72 µM | 97.5 µM | > 28.2 µM | 9.01 µM | 35.3 µM | > 100 µM |  |  |  |  |  |  |  |  |  | 
O=C(O)c1ccc(Nc2cnc3ccc(C(F)(F)F)cc3n2)cc1 | > 100 µM | 27.5 µM | 37.2 µM | 33.6 µM | 48 µM | 33.7 µM | 20.7 µM | 32 µM | 30.9 µM | > 100 µM |  |  |  |  |  |  |  |  |  | 
CC(=O)c1c(O)c(C)c(O)c2c1OC1=CC(=O)C(C(C)=O)C(=O)C12C (stereo not drawn) | 56.1 µM and 80.6 µM | 7.08 µM and 53.6 µM | 21.2 µM and 49 µM | 29.3 µM and 70.2 µM | 24.2 µM and 49.7 µM | 18.2 µM and 44.5 µM | 8.9 µM and 43 µM | 9.29 µM and 33.8 µM | 79.8 µM and 26.8 µM | 28.8 µM and 42.6 µM | 9.68 µM and 26.5 µM | 1.96 µM and 18.2 µM | 5.97 µM and 22.5 µM | 6.28 µM and 25.7 µM | 3.88 µM and 9.02 µM | 4.26 µM and 12.4 µM | 3.15 µM and 16.4 µM | 3.56 µM and 16.5 µM | 29.5 µM and 10.5 µM | 
Cc1ccc(S(=O)(=O)NC(=O)NS(=O)(=O)O)cc1 | > 100 µM | > 100 µM | > 100 µM | > 100 µM | > 100 µM | > 100 µM | > 100 µM | > 100 µM |  | > 100 µM |  |  |  |  |  |  |  |  |  | 
CCC1(O)CN(CCOC)[C@H]2C[C@@H]1C(=O)c1[nH]c3ccccc3c12 (stereo partly drawn) |  | > 100 µM | > 100 µM | > 100 µM | > 100 µM | > 100 µM | > 100 µM | > 100 µM | > 100 µM | > 100 µM |  |  |  |  |  |  |  |  |  | 
CC(=O)Oc1ccc2c(c1)c1c(OC(C)=O)c3ccccc3c(OC(C)=O)c1n2Cc1cccc(C)c1 | 53.5 µM | > 100 µM | 41.6 µM | > 100 µM | 74.4 µM | > 100 µM | > 100 µM |  | > 100 µM | > 100 µM |  |  |  |  |  |  |  |  |  | 
COC1(OC)/C(=C(\N)C=O)NC(C)(C)N1O |  | > 100 µM | > 100 µM | > 100 µM | > 100 µM | > 100 µM | 55.9 µM | > 100 µM | > 100 µM | > 100 µM |  |  |  |  |  |  |  |  |  | 
CCOP(=O)(OCC)C(F)(F)CC1CCCCC1 | > 10 µM | > 10 µM | > 10 µM | > 10 µM | > 10 µM | > 10 µM | > 10 µM | > 10 µM | > 10 µM | > 10 µM |  |  |  |  |  |  |  |  |  | 
CN1C/C(=C\c2ccccc2[N+](=O)[O-])C(=O)/C(=C/c2ccccc2[N+](=O)[O-])C1 | 12.8 µM and 10.8 µM | 1.28 µM and 1.12 µM | 6.77 µM and 7.57 µM | 0.325 µM and 0.409 µM |  | 16.6 µM and 19.2 µM | 0.632 µM and 0.41 µM | 2.31 µM and 2.91 µM | 1.41 µM and 0.545 µM | 2.73 µM and 0.505 µM |  |  |  | 0.173 µM and 0.169 µM | 0.592 µM and 0.116 µM |  | 0.239 µM |  | 0.475 µM and 0.234 µM | 1.29 µM and 0.216 µM
O=C(O)CCCc1nc2c(n1-c1ccccc1)C(=O)c1ccccc1C2=O | > 100 µM | > 100 µM | > 100 µM |  | > 100 µM | > 100 µM | > 100 µM |  | > 100 µM | 51.8 µM |  |  |  |  |  |  |  |  |  | 
C/C(=N\O)c1ccc(Nc2c3ccccc3nc3occc23)cc1 | 5.92 µM | > 50 µM | 3.78 µM | 0.72 µM | 3.26 µM | > 50 µM | 6.95 µM | 6.77 µM |  | > 50 µM |  |  |  |  |  |  |  |  |  | 
C[C@@H](C[C@@H](O)[C@H](O)C(C)(C)O)[C@H]1CC=C2[C@]3(C)[C@H](O)C[C@H]4C(C)(C)[C@H](O)CC[C@]4(C)[C@H]3CC[C@@]21C |  | 28.7 µM | 39.1 µM | 26.2 µM | 48.2 µM | 32.7 µM | 40.5 µM | 28.1 µM | 30 µM | 28 µM |  |  |  |  |  |  |  |  |  | 
